From US12594267B2, “Capsid inhibitors for the treatment of HIV” (Gilead Sciences, Inc., priority 2018, dated 2026)
Where two headings read alike, the source gives them in different places.

Experiment: PK after subcutaneous administration of solutions in dogs
Format: in vivo, Beagle dog
Details: male, beagle, dog, plasma, sc, 12 mg/kg; for concentration at 336 h / concentration at 504 h / concentration at 672 h / concentration at 840 h / concentration at 1008 h / concentration at 1344 h / concentration at 1680 h / concentration at 1 h / concentration at 3 h / concentration at 8 h / concentration at 24 h / concentration at 48 h / concentration at 72 h / concentration at 96 h / concentration at 168 h: SC 12 mg/kg, 400 mg/mL in 15% water/85% PEG 300; for AUC(0-t): male beagle dog, single SC 12 mg/kg, 400 mg/mL in 85% PEG300 and 15% water, mean ± SD
Experimental: Formulations containing the compound of Formula (Ia) were prepared as aqueous solutions or oral formulations and administered subcutaneously to rats, dogs, cynomolgus monkey, and/or rhesus monkey.
A solution of the compound of Formula (Ia) in 10% ethanol, 13% water, and 77% PEG 200 (400 mg/mL) was prepared. The solution was administered subcutaneously to dogs at a dose of 12 mg/kg and rats at a dose of 50 mg/kg and the pharmacokinetic (PK) profile was determined. […] In both species, plasma concentrations of the compound of Formula (Ia) were maintained above the target trough concentration of 20 nM (corresponding to an IQ of 5) for at least 84 days (12 weeks).
A solution of the compound of Formula (Ia) in 15% water and 85.0 PEG 300 (400 mg/mL) was prepared. The solution was administered subcutaneously to male beagle dogs at a dose level of 12 mg/kg and dose volume of […] and the pharmacokinetic (PK) profile was determined.
A solution of the compound of Formula (a) sodium salt in water and 300 (300 mg/mL) was prepared that contained 22.6% water/50% PEG 300/1.1% NaOH/26.3% Formula (Ia). The solution was administered subcutaneously to male beagle dogs at a dose level of 12 mg/kg and dose volume of […] and the pharmacokinetic (PK) profile was determined.
A 300 mg/ml solution of a compound of Formula (Ia) having 9.8 w/w % water, 65.0 w/w % PEG 300, and 25.2 w/w % of the compound of Formula (Ia) was prepared. The solution was administered subcutaneously to rats at a dose of 50 mg/kg and to dogs at a dose of 12 mg/kg and the pharmacokinetic (PK) profile was determined. […] In the rat, plasma concentrations of the compound of Formula (Ia) were maintained above the target trough concentration of 20 nM for at least 168 days (24 weeks). In the dog, plasma concentrations of the compound of Formula (Ia) were maintained above the target trough concentration of 20 nM for at least 84 days (12 weeks).
(§1) A 150 mg/ml solution of a compound of Formula (Ia) having 27.92 w/w % water, 58.04 w/w % PEG 300, 13.47 w/w % of a compound of Formula (Ia), and 1.1 w/w % NaOH was prepared. The solution was administered subcutaneously to rats at a dose of 50 mg/kg and to dogs at a dose of 12 mg/kg and the pharmacokinetic (PK) profile was determined. […] In the rat, plasma concentrations of the compound of Formula (Ia) were maintained above the target trough concentration of 20 nM for at least 126 days (18 weeks). In the dog, plasma concentrations of the compound of Formula (Ia) were maintained above the target trough concentration of 20 nM for at least 56 days (8 weeks).
as §1, with “300” for “150”, “23.2” for “27.92”, “50.0” for “58.04”, “25.7” for “13.47”
A 50 mg/ml solution of a compound of Formula (Ia) having 30.07 w/w % water, 64.40 w/w % PEG 300, 4.68 w/w % of a sodium salt of the compound of Formula (Ia), and 0.85 w/w % poloxamer 188 was prepared. The solution was administered subcutaneously to rats at a dose of 50 mg/kg and to dogs at a dose of 6 mg/kg and the pharmacokinetic (PK) profile was determined. […] In the rat, plasma concentrations of the compound of Formula (Ia) were maintained above the target trough concentration of 20 nM for at least 28 days (4 weeks). In the dog, plasma concentrations of the compound of Formula (Ia) were maintained above the target trough concentration of 20 nM for at least 14 days (2 weeks). […]

Molecule `CC(C)(C#Cc1ccc(-c2ccc(Cl)c3c(NS(C)(=O)=O)nn(CC(F)(F)F)c23)c([C@H](Cc2cc(F)cc(F)c2)NC(=O)Cn2nc(C(F)(F)F)c3c2C(F)(F)[C@@H]2C[C@H]32)n1)S(C)(=O)=O` [Formula (Ia), N—((S)-1-(3-(4-chloro-3-(methylsulfonamido)-1-(2,2,2-trifluoroethyl)-1H-indazol-7-yl)-6-(3-methyl-3-(methylsulfonyl)but-1-yn-1-yl)pyridin-2-yl)-2-(3,5-difluorophenyl)ethyl)-2-((3bS,4aR)-5,5-difluoro-3-(trifluoromethyl)-3b,4,4a,5-tetrahydro-1H-cyclopropa[3,4]cyclopenta[1,2-c]pyrazol-1-yl)acetamide] has a concentration at 336 h (dog #1) of 135 nM, a concentration at 504 h (dog #1) of 172 nM and a concentration at 672 h (dog #1) of 93.1 nM. The concentration at 840 h (dog #1) was 150 nM, the concentration at 1008 h (dog #1) was 80.2 nM and the concentration at 1344 h (dog #1) was 42.7 nM. It also gave a concentration at 1680 h (dog #1) of 69.5 nM, a concentration at 1 h (dog #2) of 1.2 nM and a concentration at 3 h (dog #2) of 2.6 nM. It also gave a concentration at 8 h (dog #2) of 15.5 nM, a concentration at 24 h (dog #2) of 27.8 nM and a concentration at 48 h (dog #2) of 60.6 nM. For the same molecule, the concentration at 72 h (dog #2) was 37.8 nM, the concentration at 96 h (dog #2) was 28.8 nM and the concentration at 168 h (dog #2) was 43.1 nM. It also gave a concentration at 336 h (dog #2) of 64.7 nM, a concentration at 504 h (dog #2) of 114 nM and a concentration at 672 h (dog #2) of 81.5 nM. It also gave a concentration at 840 h (dog #2) of 110 nM, a concentration at 1008 h (dog #2) of 70.7 nM and a concentration at 1344 h (dog #2) of 41.2 nM. For the same molecule, the concentration at 1680 h (dog #2) was 42.2 nM, the concentration at 1 h (dog #3) was 1.2 nM and the concentration at 3 h (dog #3) was 2.3 nM. For the same molecule, the concentration at 8 h (dog #3) was 9.2 nM, the concentration at 24 h (dog #3) was 16.8 nM and the concentration at 48 h (dog #3) was 13.2 nM. For the same molecule, the concentration at 72 h (dog #3) was 13.2 nM, the concentration at 96 h (dog #3) was 10.4 nM and the concentration at 168 h (dog #3) was 30.8 nM. The concentration at 336 h (dog #3) was 53 nM, the concentration at 504 h (dog #3) was 82.9 nM and the concentration at 672 h (dog #3) was 56.9 nM. The concentration at 840 h (dog #3) was 107 nM, the concentration at 1008 h (dog #3) was 54.1 nM and the concentration at 1344 h (dog #3) was 30.2 nM. For the same molecule, the concentration at 1680 h (dog #3) was 28.5 nM, the concentration at 3 h (dog mean, n=3) was 2 nM and the concentration at 8 h (dog mean, n=3) was 11.8 nM. The concentration at 24 h (dog mean, n=3) was 21.5 nM, the concentration at 48 h (dog mean, n=3) was 42.8 nM and the concentration at 72 h (dog mean, n=3) was 37.9 nM. For the same molecule, the concentration at 96 h (dog mean, n=3) was 32.7 nM, the concentration at 168 h (dog mean, n=3) was 48.6 nM and the concentration at 336 h (dog mean, n=3) was 84.2 nM. For the same molecule, the concentration at 504 h (dog mean, n=3) was 123 nM, the concentration at 672 h (dog mean, n=3) was 77.2 nM and the concentration at 840 h (dog mean, n=3) was 122 nM. It also gave a concentration at 1008 h (dog mean, n=3) of 68.3 nM, a concentration at 1344 h (dog mean, n=3) of 38 nM and a concentration at 1680 h (dog mean, n=3) of 46.7 nM. The concentration at 1 h (dog mean) was 1.2 nM, the AUC(0-t) (n=3, read-out: AUC0-24h) was 0.304 ± 0.082 µM·h and the AUC(0-t) (n=3, read-out: AUC0-48h) was 1.08 ± 0.44 µM·h. It also gave an AUC(0-t) (n=3, read-out: AUC0-72h) of 2.04 ± 0.98 µM·h, an AUC(0-t) (n=3, read-out: AUC0-168h) of 5.82 ± 3.04 µM·h and an AUC(0-t) (n=3, read-out: AUC0-672h) of 51.2 ± 21 µM·h. For the same molecule, the AUC(0-t) (n=3, read-out: AUC0-1344h) was 102 ± 30 µM·h.
